# In US9975852B2, “Quinoline sulfonyl derivatives and uses thereof” (Health Sciences North Research Institute, priority 2013, dated 2018):
# How the values were obtained:
# U87MG = assay: SRB antiproliferative assay, U87MG; type: cell-based; settings: Homo sapiens, U-87 MG
# Protocol: (§1) Antiproliferative effects were determined by a sulforhodamine B (SRB) based protocol. For a typical screening experiment, 5,000-10,000 cells were inoculated into 100 μl medium per well of a 96-well microtiter plate as described previously. Briefly, after the inoculation, the microtiter plate was incubated at 37° C., 5% CO2, 95% air and 100% relative humidity for 24 h, prior to addition of experimental drugs. Some of the sample wells were fixed with 25 μl of 50% trichloroacetic acid (TCA) as a control of the cell population for each cell line at the time of drug addition (Tz). An aliquot of the frozen stock was thawed and diluted to the desired final maximum test-concentration with complete medium. […] The cells “stained” with SRB were solubilized with 10 mM trizma base, and the absorbance was read on an automated plate reader at a wavelength of 515-564 nm. The relative growth rate (%) was calculated for each of the compound concentrations according to the following formula: (Ti−Tz)/(C−Tz)×100 In the formula, time zero (Tz), control growth (C), and OD for different concentration of tested compounds (Ti). […] Values were calculated for each of these parameters if the level of activity was reached. However, if the effect was not reached or was exceeded, the value for that parameter was expressed as greater or less than the maximum or minimum concentration tested. […]
# MCF7 cells [1] = assay: Flow cytometry, apoptosis of MCF7 cells; type: cell-based, human; settings: VR-23 2.7 or 8.0 μM, 48 hours
# Protocol: Asynchronous MCF7 cells were incubated for 48 hours in the absence (Sham treated control) or presence of VR-23 at 2.7 or 8.0 μM. […] (Note the sub-G1 DNA profile that is typical for apoptotic cell death.) The profiles of flow cytometry are consistent with the cell images in the corresponding upper panels (FIG. 3).
# MCF7 cells [2] = assay: Clonogenic assay using MCF7 cells; type: cell-based, human; settings: for Average colony number: series with non-treated control 34
# Protocol: The clonogenic assay was carried out as described in Santi and Lee (2011).^11
# Antiproliferative activity of VR-23 was evaluated on a variety of different cell lines, alone or in combination with Bortezomib, by way of SRBSRB or clonogenic assays.
# [3] = test system: MDA-MB231 human metastatic breast cancer cells; assay: Xenograft antitumor activity, ATH490 mice engrafted with MDA-MB231; type: in vivo
# Protocol: Five-week-old female CD-1 and ATH490 (strain code 490) athymic nude mice were purchased from Charles River (Quebec, Canada). The MDA-MB231 human metastatic breast cancer cells were obtained from the American Tissue Culture Collection (ATCC, Manassas, Va., USA). Cells were maintained under humidified condition at 37° C. and 5% CO2 in DMEM high glucose medium (ATCC) supplemented with 10% fetal bovine serum and antibiotics. All animal experiments, including animal handling, care, treatment and endpoint determination, were reviewed and approved by the Laurentian University Animal Care Committee (ACC) and carried out at Laurentian University Animal Care facility (Sudbury, Ontario, Canada)
# To determine anti-tumor activity of VR-23 in an animal model, a xenograft model of human breast cancer cells in athymic nude mice was established. Exponentially growing MDA-MB231 cells were harvested and counted for inoculation into mice. Each mouse was subcutaneously injected at the flank with 10×10^6 cells in 0.2 ml ice cold 1×PBS. When tumor size reached 4-5 mm in diameter (n=4-5 per group), mice were randomly assigned into five (or more) groups.
# Jurkat = assay: SRB antiproliferative assay, Jurkat; type: cell-based; settings: Homo sapiens
# Protocol: as §1
# HeLa = assay: SRB antiproliferative assay, HeLa; type: cell-based; settings: Homo sapiens
# Protocol: as §1
# [4] = biological target: T1, Caspase-like proteasome activity in HeLa S3 cell lysates (Homo sapiens, UniProt P28072); assay: Proteasome activity assay, caspase-like; type: biochemical; settings: read-out: Inhibition (IC50) Caspase-like
# T1 construct: proteasomes were extracted in 0.5% NP40 buffer; endogenous in cells; host or cells: HeLa S3
# Protocol: Exponentially growing HeLa S3 cells were plated on 96-well plates. After overnight incubation, the cells were treated with different concentrations of drugs for 6 hours or left untreated (control). At the end of 6 hours, proteasomes were extracted in 0.5% NP40 buffer, and equal amounts of samples were incubated with 25 μM of fluorogenic substrates purchased from Boston Biochem (Cambridge Mass.). (LRR-specific for trypsin-like activity, LLE-specific for caspase-like activity and SUVY-specific for chymotrypsin like activity) in black-bottom 96-well plates at 37° C. Fluorescence was monitored every 5 min at the wavelength of 360 nm (excitation) and 480 nm (emission). Chymotrypsin activity was also determined by a kit-based method (similar to described above) purchased from Caymen Biochem (Ann Arbor, Mich.), using a fluorogenic substrate specific for chymotrypsin activity.
# Analysis of proteasome activity in HeLa S3 cell lysates treated with various compounds (FIG. 10). VR-23 inhibits proteasome activity. 20S proteasome activity was inhibited by 1 μM VR-23. MG132 and EGCG, known proteasome inhibitors, were used as positive controls. The PC positive control is cell lysates prepared from Jurkat cells with a high proteasome activity. “Asynchr” denote asynchronous HeLa S3 cells grown in the absence of VR-23.
compound,measurement,setting,value
"O=[N+]([O-])c1ccc(S(=O)(=O)N2CCN(c3ccnc4cc(Cl)ccc34)CC2)c([N+](=O)[O-])c1 [Compound 1, 7-Chloro-4-(4-(2,4-dinitrophenylsulfonyl)piperazin-1-yl)quinoline]",IC50,U87MG,800 ± 100 nM
same,Apoptosis (sub-G1 DNA profile),MCF7 cells [1],caused apoptosis
same,Survival (% of the control),MCF7 cells [2]; 1.5 μM of VR-23 alone,50.3%
same,Survival (% of the control),MCF7 cells [2]; 3.1 μM of VR-23 alone,46.8%
same,IC50,"MCF7 cells [2]; Homo sapiens, MCF7, read-out: IC50 MCF7",1200 ± 500 nM
same,Average colony number,MCF7 cells [2]; VR-23 at 0.37 μM,25
same,Average colony number,MCF7 cells [2]; VR-23 at 0.75 μM,27
same,Decrease of tumor size compared to sham-treated control,"[3]; VR-23 30 mg/kg twice per week i.p., three weeks",4.6 fold
same,Tumor size D0,"[3]; day 0, dosing as in Table IX B",46.51 ± 2.82
same,Tumor size D7,"[3]; day 7 post-treatment, dosing as in Table IX B",52.74 ± 5.64
same,Tumor size D15,"[3]; day 15 post-treatment, dosing as in Table IX B",48.29 ± 17.30
same,Tumor size D18,"[3]; day 18 post-treatment, dosing as in Table IX B",42.41 ± 17.95
same,Tumor size D22,"[3]; day 22 post-treatment, dosing as in Table IX B",65.88 ± 25.92
same,VEGF immunostaining of tumor,[3]; four weeks treatment,did not show any notable amount of VEGF
same,Angiogenesis and spread of tumor cells,"[3]; four weeks treatment, H & E",inhibited angiogenesis and the spread of tumor cells to surrounding tissue/organs
same,"Tumor cell proliferation (Ki-67, mitotic index)",[3]; tumor samples 15 and 29 days post-treatment,inhibited tumor cell proliferation
same,IC50,Jurkat,800 ± 100 nM
same,IC50,HeLa,4400 ± 3000 nM
same,IC50,[4],3000 nM
